According to US11739074B2, “Ras inhibitors” (Revolution Medicines, Inc., priority 2019, dated 2023):
Read-outs that look alike come from different tables or passages of the source.

Key:
KRAS WT = KRAS WT (Homo sapiens, UniProt P01116+P62937); assay: Ras-Raf disruption/FRET/MOA assay, KRAS WT; assay type: biochemical
Method in brief: (§1)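 Compounds promote a Cyclophilin A (25 μM) ternary complex with His6-KRAS-GMPPNP, which blocks binding of GST-BRAF^RBD (50 nM). Titration runs to a 30 μM top concentration, and loss of RAF binding is detected by TR-FRET.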

KRAS G13D = KRAS G13D (Homo sapiens, UniProt P01116+P62937, G13D); assay: Ras-Raf disruption/FRET/MOA assay, KRAS G13D; assay type: biochemical
Chain of KRAS G13D (P01116 1-169 isoform P01116-2 G13D limits assumed): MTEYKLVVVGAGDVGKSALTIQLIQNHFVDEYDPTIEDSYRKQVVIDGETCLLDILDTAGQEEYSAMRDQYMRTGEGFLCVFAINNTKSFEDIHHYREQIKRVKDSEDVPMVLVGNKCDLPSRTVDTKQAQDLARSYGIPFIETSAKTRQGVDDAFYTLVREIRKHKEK
Chain of KRAS G13D (P62937 whole entry): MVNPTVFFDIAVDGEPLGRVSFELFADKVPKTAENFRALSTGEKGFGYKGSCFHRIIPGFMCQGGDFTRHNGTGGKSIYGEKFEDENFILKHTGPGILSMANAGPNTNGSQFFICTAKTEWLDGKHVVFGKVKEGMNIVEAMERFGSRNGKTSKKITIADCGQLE
Method in brief: as §1

KRAS G12V = KRAS G12V (Homo sapiens, UniProt P01116+P62937, G12V); assay: Ras-Raf disruption/FRET/MOA assay, KRAS G12V; assay type: biochemical
Chain of KRAS G12V (P01116 1-169 isoform P01116-2 G12V limits assumed): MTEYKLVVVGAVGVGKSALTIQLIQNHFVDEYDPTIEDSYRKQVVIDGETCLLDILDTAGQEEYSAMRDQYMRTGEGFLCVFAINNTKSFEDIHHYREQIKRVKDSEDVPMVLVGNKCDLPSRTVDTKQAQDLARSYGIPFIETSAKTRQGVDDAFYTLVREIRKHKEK
Chain of KRAS G12V (P62937 whole entry): as the sequence (P62937 whole entry) above
Method in brief: as §1

NRAS G12C = molecular target: T1, NRAS G12C (Homo sapiens, UniProt P01111+P62937, G12C); assay: Ras-Raf disruption/FRET/MOA assay, NRAS G12C; assay type: biochemical
T1 construct: His6
T1 sequence (P01111 whole entry G12C): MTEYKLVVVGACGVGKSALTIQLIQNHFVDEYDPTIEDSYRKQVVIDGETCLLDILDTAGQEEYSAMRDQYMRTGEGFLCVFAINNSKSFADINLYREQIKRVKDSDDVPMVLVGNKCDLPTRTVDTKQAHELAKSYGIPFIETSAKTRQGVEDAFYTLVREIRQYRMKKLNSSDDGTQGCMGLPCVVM
T1 sequence (P62937 whole entry): as the sequence (P62937 whole entry) above
Method in brief: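 Disruption of Ras:RAF binding was read as a drop in TR-FRET ratio versus DMSO controls. The buffer was 25 mM HEPES pH 7.3, 0.002% Tween20, 0.1% BSA, 100 mM NaCl and 5 mM MgCl2. Compounds were tested as a 10-point 3-fold dilution series from 30 μM. Detection used 10 nM anti-His Eu-W1024 and 50 nM anti-GST allophycocyanin.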

AsPC-1 (K-Ras G12D) [1] = assay: Potency assay: pERK in AsPC-1 cells; assay type: cell-based; conditions: Homo sapiens
KRAS G12D = KRAS G12D (Homo sapiens, UniProt P01116+P62937, G12D); assay: Ras-Raf disruption/FRET/MOA assay, KRAS G12D; assay type: biochemical
Chain of KRAS G12D (P01116 1-169 isoform P01116-2 G12D limits assumed): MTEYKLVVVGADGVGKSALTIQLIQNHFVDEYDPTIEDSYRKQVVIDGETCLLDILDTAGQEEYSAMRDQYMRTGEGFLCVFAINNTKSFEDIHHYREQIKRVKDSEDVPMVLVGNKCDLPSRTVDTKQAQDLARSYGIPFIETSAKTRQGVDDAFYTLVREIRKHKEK
Chain of KRAS G12D (P62937 whole entry): as the sequence (P62937 whole entry) above
Method in brief: as §1

AsPC-1 (K-Ras G12D) [2] = assay: CellTiter-Glo cell viability assay, AsPC-1; assay type: cell-based; conditions: Homo sapiens, ASPC1, 120 h
Method in brief: (§2)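 Luminescence from CellTiter-Glo serves as the viability read-out after cells are treated with compound for 5 days. Each well's signal is divided by the DMSO average and multiplied by 100, and curves are fitted by four-parameter logistic regression.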

NCI-H358 (K-Ras G12C) = assay: CellTiter-Glo cell viability assay, H358; assay type: cell-based; conditions: Homo sapiens, NCI-H358, 120 h
Method in brief: as §2

KRAS G12C = KRAS G12C (Homo sapiens, UniProt P01116+P62937, G12C); assay: Ras-Raf disruption/FRET/MOA assay, KRAS G12C; assay type: biochemical
Chain of KRAS G12C (P01116 1-169 isoform P01116-2 G12C limits assumed): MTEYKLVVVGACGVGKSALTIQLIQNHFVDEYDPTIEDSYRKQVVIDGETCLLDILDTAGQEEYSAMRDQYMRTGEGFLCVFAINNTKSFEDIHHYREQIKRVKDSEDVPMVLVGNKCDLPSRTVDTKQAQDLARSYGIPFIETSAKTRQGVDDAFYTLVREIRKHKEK
Chain of KRAS G12C (P62937 whole entry): as the sequence (P62937 whole entry) above
Method in brief: as §1

KRAS G13C = KRAS G13C (Homo sapiens, UniProt P01116+P62937, G13C); assay: Ras-Raf disruption/FRET/MOA assay, KRAS G13C; assay type: biochemical
Chain of KRAS G13C (P01116 1-169 isoform P01116-2 G13C limits assumed): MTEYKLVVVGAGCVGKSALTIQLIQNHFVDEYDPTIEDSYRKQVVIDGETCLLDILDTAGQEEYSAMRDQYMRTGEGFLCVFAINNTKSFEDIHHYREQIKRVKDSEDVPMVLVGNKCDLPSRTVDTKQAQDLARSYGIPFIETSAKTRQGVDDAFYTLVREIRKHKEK
Chain of KRAS G13C (P62937 whole entry): as the sequence (P62937 whole entry) above
Method in brief: as §1

KRAS G12S = KRAS G12S (Homo sapiens, UniProt P01116+P62937, G12S); assay: Ras-Raf disruption/FRET/MOA assay, KRAS G12S; assay type: biochemical
Chain of KRAS G12S (P01116 1-169 isoform P01116-2 G12S limits assumed): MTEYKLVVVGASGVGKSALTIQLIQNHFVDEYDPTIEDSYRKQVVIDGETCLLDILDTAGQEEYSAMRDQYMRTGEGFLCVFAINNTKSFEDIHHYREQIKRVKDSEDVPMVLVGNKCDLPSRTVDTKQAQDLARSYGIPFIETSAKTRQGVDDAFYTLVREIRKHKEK
Chain of KRAS G12S (P62937 whole entry): as the sequence (P62937 whole entry) above
Method in brief: as §1

[3] = NRAS G12C FRET data IC50, NRAS G12C
[4] = ASPC1, read-out: pERK EC50 (AsPC-1 KRAS G12D)
[5] = read-out: AsPC-1 Cell Viability IC50, AsPC-1, K-Ras G12D, 5-day treatment
[6] = read-out: H358 Cell Viability IC50, NCI-H358, K-Ras G12C, 5-day treatment
[7] = disruption of BRAF RBD binding, with Cyclophilin A, read-out: KRAS WT FRET IC50
[8] = disruption of BRAF RBD binding, with Cyclophilin A, read-out: KRAS G13D FRET IC50
[9] = disruption of BRAF RBD binding, with Cyclophilin A, read-out: KRAS G12V FRET IC50
[10] = NRAS G12C, read-out: NRAS G12C FRET data IC50
[11] = disruption of BRAF RBD binding, with Cyclophilin A, read-out: KRAS G12D FRET IC50
[12] = read-out: AsPC-1 Cell Viability IC50
[13] = read-out: H358 Cell Viability IC50
[14] = disruption of BRAF RBD binding, with Cyclophilin A, read-out: KRAS G12C FRET IC50
[15] = disruption of BRAF RBD binding, with Cyclophilin A, read-out: KRAS G13C FRET IC50
[16] = disruption of BRAF RBD binding, with Cyclophilin A, read-out: KRAS G12S FRET IC50
[17] = ASPC1, AsPC-1 cells, K-Ras G12D, read-out: pERK EC50 (AsPC-1 KRAS G12D)
[18] = AsPC-1, K-Ras G12D, 5-day treatment, read-out: AsPC-1 Cell Viability IC50
[19] = NCI-H358, K-Ras G12C, 5-day treatment, read-out: H358 Cell Viability IC50

Chain of KRAS WT (P01116 1-169 isoform P01116-2 limits assumed): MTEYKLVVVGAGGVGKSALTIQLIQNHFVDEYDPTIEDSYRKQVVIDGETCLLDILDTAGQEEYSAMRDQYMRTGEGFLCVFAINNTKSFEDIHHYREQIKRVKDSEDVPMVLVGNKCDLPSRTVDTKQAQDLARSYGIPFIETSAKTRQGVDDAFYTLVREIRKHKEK
Chain of KRAS WT (P62937 whole entry): as the sequence (P62937 whole entry) above

| SMILES | IC50 (KRAS WT) | IC50 (KRAS G13D) | IC50 (KRAS G12V) | IC50 (NRAS G12C; [3]) | EC50 (AsPC-1 (K-Ras G12D) [1]; [4]) | IC50 (KRAS G12D) | IC50 (AsPC-1 (K-Ras G12D) [2]; [5]) | IC50 (NCI-H358 (K-Ras G12C); [6]) | IC50 (KRAS G12C) | IC50 (KRAS G13C) | IC50 (KRAS G12S) | IC50 (KRAS WT; [7]) | IC50 (KRAS G13D; [8]) | IC50 (KRAS G12V; [9]) | IC50 (NRAS G12C; [10]) | IC50 (KRAS G12D; [11]) | IC50 (AsPC-1 (K-Ras G12D) [2]; [12]) | IC50 (KRAS G12C; [14]) | IC50 (KRAS G13C; [15]) | IC50 (KRAS G12S; [16]) | also measured |
| --- | --- | --- | --- | --- | --- | --- | --- | --- | --- | --- | --- | --- | --- | --- | --- | --- | --- | --- | --- | --- | --- |
| CCn1c(-c2cnccc2COC)c2c3cc(ccc31)-c1cc(O)cc(c1)C[C@H](NC(=O)[C@H](C(C)C)N(C)C(=O)CN(C)C(=O)[C@H]1CN1Cc1ccccc1)C(=O)N1CCC[C@H](N1)C(=O)OCC(C)(C)C2 (some centres unmarked) [Compound 9] | 100 to 1000 nM | 100 to 1000 nM | 100 to 1000 nM | 10 to 100 nM | < 5000 nM | 1000 to 10000 nM | 1000 to 10000 nM | 10 to 100 nM | 10 to 100 nM | 100 to 1000 nM | 100 to 1000 nM |  |  |  |  |  |  |  |  |  |  |
| CCn1c(-c2cnccc2COC)c2c3cc(ccc31)-c1cc(O)cc(c1)C[C@H](NC(=O)[C@H](C(C)C)N(C)C(=O)CN(C)C(=O)[C@@H]1CN1Cc1ccccc1)C(=O)N1CCC[C@H](N1)C(=O)OCC(C)(C)C2 (some centres unmarked) [Compound 10] | 100 to 1000 nM | 1000 to 10000 nM | 100 to 1000 nM | 10 to 100 nM | < 5000 nM | 1000 to 10000 nM | 1000 to 10000 nM | 10 to 100 nM | 10 to 100 nM | 100 to 1000 nM | 10 to 100 nM |  |  |  |  |  |  |  |  |  |  |
| CCn1c(-c2cnccc2COC)c2c3cc(ccc31)-c1cc(O)cc(c1)C[C@H](NC(=O)[C@H](C(C)C)N(C)C(=O)CN(C)C(=O)C1CN1S(C)(=O)=O)C(=O)N1CCC[C@H](N1)C(=O)OCC(C)(C)C2 (some centres unmarked) [Compound 13] |  |  |  |  | < 5000 nM |  |  |  |  |  |  | 10 to 100 nM | 100 to 1000 nM | 10 to 100 nM | 10 to 100 nM | 100 to 1000 nM | 1000 to 10000 nM | 10 to 100 nM | 10 to 100 nM | 10 to 100 nM | IC50 (NCI-H358 (K-Ras G12C); [13]): 10 to 100 nM |
| CCn1c(-c2cnccc2COC)c2c3cc(ccc31)-c1cc(O)cc(c1)C[C@H](NC(=O)[C@H](C(C)C)N(C)C(=O)CN(C)C(=O)C1CN1C(C)=O)C(=O)N1CCC[C@H](N1)C(=O)OCC(C)(C)C2 (some centres unmarked) [Compound 14] |  |  |  |  | < 5000 nM |  |  |  |  |  |  | 100 to 1000 nM | 100 to 1000 nM | 100 to 1000 nM | 10 to 100 nM | 100 to 1000 nM | 1000 to 10000 nM | 10 to 100 nM | 10 to 100 nM | 100 to 1000 nM | IC50 (NCI-H358 (K-Ras G12C); [13]): 100 to 1000 nM |
| CCn1c(-c2cnccc2COC)c2c3cc(ccc31)-c1cc(O)cc(c1)C[C@H](NC(=O)[C@H](C(C)C)N(C)C(=O)CN(C)C(=O)[C@@H]1[C@H](C(=O)OC)N1[S@@+]([O-])C(C)(C)C)C(=O)N1CCC[C@H](N1)C(=O)OCC(C)(C)C2 (some centres unmarked) [Compound 50] |  |  |  |  | < 5000 nM |  |  |  |  |  |  | 100 to 1000 nM | 100 to 1000 nM | 10 to 100 nM | 10 to 100 nM | 100 to 1000 nM | > 10000 nM | 10 to 100 nM | 10 to 100 nM | 10 to 100 nM | IC50 (NCI-H358 (K-Ras G12C); [13]): 100 to 1000 nM |
| CCn1c(-c2cnccc2COC)c2c3cc(ccc31)-c1cc(O)cc(c1)C[C@H](NC(=O)[C@H](C(C)C)N(C)C(=O)CN(C)C(=O)[C@H]1[C@@H](C3CC3)N1[S@+]([O-])C(C)(C)C)C(=O)N1CCC[C@H](N1)C(=O)OCC(C)(C)C2 (some centres unmarked) [Compound 52] |  |  |  |  | < 5000 nM |  |  |  |  |  |  | 10 to 100 nM | 100 to 1000 nM | 100 to 1000 nM | 10 to 100 nM | 100 to 1000 nM | 1000 to 10000 nM | 10 to 100 nM | 100 to 1000 nM | 10 to 100 nM | IC50 (NCI-H358 (K-Ras G12C); [13]): 100 to 1000 nM |
| CCn1c(-c2cccnc2[C@H](C)OC)c2c3cc(ccc31)-c1cc(O)cc(c1)C[C@H](NC(=O)[C@H](C1CCCC1)N(C)C(=O)[C@H]1CCN(C(=O)[C@H]3CN3)C1)C(=O)N1CCC[C@H](N1)C(=O)OCC(C)(C)C2 [Compound 58] |  |  |  |  |  |  |  |  |  |  |  | 10 to 100 nM | 10 to 100 nM | 10 to 100 nM | < 10 nM | 100 to 1000 nM |  | < 10 nM | 10 to 100 nM | 10 to 100 nM | EC50 (AsPC-1 (K-Ras G12D) [1]; [17]): < 5000 nM; IC50 (AsPC-1 (K-Ras G12D) [2]; [18]): 100 to 1000 nM; IC50 (NCI-H358 (K-Ras G12C); [19]): < 10 nM |
| CCn1c(-c2cccnc2[C@H](C)OC)c2c3cc(ccc31)-c1cc(O)cc(c1)C[C@H](NC(=O)[C@H](C(C)C)N(C)C(=O)CN(C)C(=O)[C@@H]1CN1)C(=O)N1CCC[C@H](N1)C(=O)OCC(C)(C)C2 [Compound 150] | 10 to 100 nM | 10 to 100 nM | 10 to 100 nM | < 10 nM | < 5000 nM | 10 to 100 nM | 100 to 1000 nM | < 10 nM | < 10 nM | 10 to 100 nM | 10 to 100 nM |  |  |  |  |  |  |  |  |  |  |
| CCn1c(-c2cccnc2[C@H](C)OC)c2c3cc(ccc31)-c1cc(O)cc(c1)C[C@H](NC(=O)[C@H](C(C)C)N1CC[C@@]3(CCCN(C(=O)[C@@H]4CN4)C3)C1=O)C(=O)N1CCC[C@H](N1)C(=O)OCC(C)(C)C2 [Compound 191] |  |  |  |  |  |  |  |  |  |  |  | 10 to 100 nM | 100 to 1000 nM | 100 to 1000 nM | 10 to 100 nM | 100 to 1000 nM |  | 10 to 100 nM | 10 to 100 nM | 10 to 100 nM | EC50 (AsPC-1 (K-Ras G12D) [1]; [17]): < 5000 nM; IC50 (AsPC-1 (K-Ras G12D) [2]; [18]): 1000 to 10000 nM; IC50 (NCI-H358 (K-Ras G12C); [19]): 10 to 100 nM |
| CCn1c(-c2cnccc2COC)c2c3cc(ccc31)-c1cc(O)cc(c1)C[C@H](NC(=O)[C@H](C(C)C)N(C)C(=O)CN(C)C(=O)[C@H]1CN1)C(=O)N1CCC[C@H](N1)C(=O)OCC(C)(C)C2 [Example 7, (2R)—N-(2-(((2S)-1-(((6^3S,4S)-1^1-ethyl-2^5-hydroxy-1^2-(4-(methoxymethyl)pyridin-3-yl)-10,10-dimethyl-5,7-dioxo-6^1,6^2,6^3,6^4,6^5,6^6-hexahydro-1^1H-8-oxa-1(5,3)-indola-6(1,3)-pyridazina-2(1,3)-benzenacycloundecaphane-4-yl)amino)-3-methyl-1-oxobutan-2-yl)(methyl)amino)-2-oxoethyl)-N-methylaziridine-2-carboxamide] | 100 to 1000 nM | 100 to 1000 nM | 100 to 1000 nM | < 10 nM | < 5000 nM | 100 to 1000 nM | 100 to 1000 nM | 10 to 100 nM | < 10 nM | 10 to 100 nM | 10 to 100 nM |  |  |  |  |  |  |  |  |  |  |
